# How the values were obtained:
# Assay type in all cases: in vivo
# [1] = test system: Cocklebur; test: pre-emergent herbicidal activity, soil incorporation; details: Table III, 2 WAT, 11.2 kg/h
# Source text: (§1) A good grade of top soil is placed in aluminum pans and compacted to a depth of 0.95 to 1.27 cm. from the top of each pan. A predetermined number of seeds or vegetative propagules of each of several plant species are placed on top of the soil in each pan and then pressed down. Herbicidal compositions prepared as in the previous example are applied by admixture with or incorporation in the top layer of soil.
# (§2) In this method, the soil required to cover the seeds and propagules is weighed and admixed with a herbicidal composition containing a known amount of the active ingredient (compound of this invention). The pans are then filled with the admixture and leveled. Watering is carried out by permitting the soil in the pans to absorb moisture through apertures in the pan bottoms. The seed and propagule containing pans are placed on a wet sand bench and maintained for approximately two weeks under ordinary conditions of sunlight and watering. At the end of this period, the number of emerged plants of each species is noted and compared to an untreated control.
# (§3) The pre-emergent herbicidal activity index used below is based upon average percent control of each species as follows: […]
# [2] = test system: Morningglory; test: as above; details: Table III, 2 WAT, 11.2 kg/h
# Source text: as §1, §2, §3
# [3] = test system: Lambsquarters; test: as above; details: Table III, 2 WAT, 11.2 kg/h
# Source text: as §1, §2, §3
# [4] = test system: Quackgrass; test: as above; details: Table III, 2 WAT, 11.2 kg/h
# Source text: as §1, §2, §3
# [5] = test system: Canada Thistle; test: as above; details: Table III, 2 WAT, 11.2 kg/h
# Source text: as §1, §2, §3
# [6] = test system: Johnsongrass; test: as above; details: Table III, 2 WAT, 11.2 kg/h
# Source text: as §1, §2, §3
# [7] = test system: Smartweed; test: as above; details: Table III, 2 WAT, 11.2 kg/h
# Source text: as §1, §2, §3
# [8] = test system: Velvetleaf; test: as above; details: Table III, 2 WAT, 11.2 kg/h
# Source text: as §1, §2, §3
# [9] = test system: Yellow Nutsedge; test: as above; details: Table III, 2 WAT, 11.2 kg/h
# Source text: as §1, §2, §3
# [10] = test system: Barnyardgrass; test: as above; details: Table III, 2 WAT, 11.2 kg/h
# Source text: as §1, §2, §3
# [11] = test system: Downy Brome; test: as above; details: Table III, 2 WAT, 11.2 kg/h
# Source text: as §1, §2, §3
# [12] = test system: Hemp Sesbania; test: post-emergent herbicidal activity, greenhouse; details: Table II
# Outline: (§4)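 Seeds or propagules sown in compacted top soil, grown 2–3 weeks in greenhouse, then sprayed with compound solution/suspension containing ~0.4% emulsifier at tabulated rates. Injury scored visually versus untreated controls at ~2 and 4 weeks after treatment, expressed as a herbicidal activity index.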
# [13] = test system: Cocklebur; test: post-emergent herbicidal activity, greenhouse
# Outline: as §4
# [14] = test system: Soybean; test: post-emergent herbicidal activity, greenhouse; details: Table II
# Outline: as §4
# [15] = test system: Wild Buckwheat; test: post-emergent herbicidal activity, greenhouse; details: Table II
# Outline: as §4
# [16] = test system: Morningglory; test: post-emergent herbicidal activity, greenhouse
# Outline: as §4
# [17] = test system: Lambsquarters; test: post-emergent herbicidal activity, greenhouse
# Outline: as §4
# [18] = test system: Quackgrass; test: post-emergent herbicidal activity, greenhouse; details: Table I, 4 WAT
# Outline: as §4
# [19] = test system: Canada Thistle; test: post-emergent herbicidal activity, greenhouse; details: Table I, 4 WAT
# Outline: as §4
# [20] = test system: Johnsongrass; test: post-emergent herbicidal activity, greenhouse; details: Table I, 4 WAT
# Outline: as §4
# [21] = test system: Wheat; test: post-emergent herbicidal activity, greenhouse; details: Table II
# Outline: as §4
# [22] = test system: Smartweed; test: post-emergent herbicidal activity, greenhouse
# Outline: as §4
# [23] = test system: Rice; test: post-emergent herbicidal activity, greenhouse; details: Table II
# Outline: as §4
# [24] = test system: Sorghum; test: post-emergent herbicidal activity, greenhouse; details: Table II
# Outline: as §4
# [25] = test system: Velvetleaf; test: post-emergent herbicidal activity, greenhouse
# Outline: as §4
# [26] = test system: Sugar Beet; test: post-emergent herbicidal activity, greenhouse; details: Table II
# Outline: as §4
# [27] = test system: Yellow Nutsedge; test: post-emergent herbicidal activity, greenhouse; details: Table I, 4 WAT
# Outline: as §4
# [28] = test system: Barnyardgrass; test: post-emergent herbicidal activity, greenhouse
# Outline: as §4
# [29] = test system: Downy Brome; test: post-emergent herbicidal activity, greenhouse
# Outline: as §4
# [30] = test system: Panicum Spp; test: post-emergent herbicidal activity, greenhouse; details: Table II
# Outline: as §4
# [31] = 2** WAT, 0.056 kg/h, applied in 100 GPA THF
# [32] = Table II, 2** WAT, 0.056 kg/h, applied in 100 GPA THF
structure (smiles),measurement,setting,value
"CCOC(=O)CNCP(=O)(O)OC(C#N)CC (stereo not drawn) [Example 8, glycine, N-[[(1-cyanopropoxy)hydroxyphosphinyl]methyl],ethyl ester]",pre-emergent herbicidal activity index,[1],0 (1-24% control)
same,pre-emergent herbicidal activity index,[2],0 (1-24% control)
same,pre-emergent herbicidal activity index,[3],0 (1-24% control)
same,pre-emergent herbicidal activity index,[4],2 (50-74% control)
same,pre-emergent herbicidal activity index,[5],3 (75-100% control)
same,pre-emergent herbicidal activity index,[6],2 (50-74% control)
same,pre-emergent herbicidal activity index,[7],0 (1-24% control)
same,pre-emergent herbicidal activity index,[8],0 (1-24% control)
same,pre-emergent herbicidal activity index,[9],1 (25-49% control)
same,pre-emergent herbicidal activity index,[10],0 (1-24% control)
same,pre-emergent herbicidal activity index,[11],0 (1-24% control)
same,post-emergent herbicidal activity index,[12]; [31],0 (0-24% control)
same,post-emergent herbicidal activity index,"[12]; 4 WAT, 1.12 kg/h",2 (50-74% control)
same,post-emergent herbicidal activity index,"[12]; 4 WAT, 5.6 kg/h",4 (100% control)
same,post-emergent herbicidal activity index,"[13]; Table I, 4 WAT, 5.6 kg/h",3 (75-99% control)
same,post-emergent herbicidal activity index,"[13]; Table I, 4 WAT, 11.2 kg/h",4 (100% control)
same,post-emergent herbicidal activity index,[13]; [32],0 (0-24% control)
same,post-emergent herbicidal activity index,"[13]; Table II, 4 WAT, 1.12 kg/h",3 (75-99% control)
same,post-emergent herbicidal activity index,"[13]; Table II, 4 WAT, 5.6 kg/h",4 (100% control)
same,post-emergent herbicidal activity index,[14]; [31],0 (0-24% control)
same,post-emergent herbicidal activity index,"[14]; 4 WAT, 1.12 kg/h",3 (75-99% control)
same,post-emergent herbicidal activity index,"[14]; 4 WAT, 5.6 kg/h",4 (100% control)
same,post-emergent herbicidal activity index,[15]; [31],0 (0-24% control)
same,post-emergent herbicidal activity index,"[15]; 4 WAT, 1.12 kg/h",3 (75-99% control)
same,post-emergent herbicidal activity index,"[15]; 4 WAT, 5.6 kg/h",4 (100% control)
same,post-emergent herbicidal activity index,"[16]; Table I, 4 WAT, 5.6 kg/h",2 (50-74% control)
same,post-emergent herbicidal activity index,"[16]; Table I, 4 WAT, 11.2 kg/h",3 (75-99% control)
same,post-emergent herbicidal activity index,[16]; [32],0 (0-24% control)
same,post-emergent herbicidal activity index,"[16]; Table II, 4 WAT, 1.12 kg/h",3 (75-99% control)
same,post-emergent herbicidal activity index,"[16]; Table II, 4 WAT, 5.6 kg/h",3 (75-99% control)
same,post-emergent herbicidal activity index,"[17]; Table I, 4 WAT, 5.6 kg/h",4 (100% control)
same,post-emergent herbicidal activity index,"[17]; Table I, 4 WAT, 11.2 kg/h",4 (100% control)
same,post-emergent herbicidal activity index,[17]; [32],0 (0-24% control)
same,post-emergent herbicidal activity index,"[17]; Table II, 4 WAT, 1.12 kg/h",3 (75-99% control)
same,post-emergent herbicidal activity index,"[17]; Table II, 4 WAT, 5.6 kg/h",4 (100% control)
same,post-emergent herbicidal activity index,[18]; 5.6 kg/h,4 (100% control)
same,post-emergent herbicidal activity index,[18]; 11.2 kg/h,4 (100% control)
same,post-emergent herbicidal activity index,[19]; 5.6 kg/h,4 (100% control)
same,post-emergent herbicidal activity index,[19]; 11.2 kg/h,4 (100% control)
same,post-emergent herbicidal activity index,[20]; 5.6 kg/h,3 (75-99% control)
same,post-emergent herbicidal activity index,[20]; 11.2 kg/h,4 (100% control)
same,post-emergent herbicidal activity index,[21]; [31],1 (25-49% control)
same,post-emergent herbicidal activity index,"[21]; 4 WAT, 1.12 kg/h",4 (100% control)
same,post-emergent herbicidal activity index,"[21]; 4 WAT, 5.6 kg/h",4 (100% control)
same,post-emergent herbicidal activity index,"[22]; Table I, 4 WAT, 5.6 kg/h",4 (100% control)
same,post-emergent herbicidal activity index,"[22]; Table I, 4 WAT, 11.2 kg/h",4 (100% control)
same,post-emergent herbicidal activity index,[22]; [32],0 (0-24% control)
same,post-emergent herbicidal activity index,"[22]; Table II, 4 WAT, 1.12 kg/h",3 (75-99% control)
same,post-emergent herbicidal activity index,"[22]; Table II, 4 WAT, 5.6 kg/h",4 (100% control)
same,post-emergent herbicidal activity index,[23]; [31],0 (0-24% control)
same,post-emergent herbicidal activity index,"[23]; 4 WAT, 1.12 kg/h",3 (75-99% control)
same,post-emergent herbicidal activity index,"[23]; 4 WAT, 5.6 kg/h",4 (100% control)
same,post-emergent herbicidal activity index,[24]; [31],0 (0-24% control)
same,post-emergent herbicidal activity index,"[24]; 4 WAT, 1.12 kg/h",4 (100% control)
same,post-emergent herbicidal activity index,"[24]; 4 WAT, 5.6 kg/h",4 (100% control)
same,post-emergent herbicidal activity index,"[25]; Table I, 4 WAT, 5.6 kg/h",3 (75-99% control)
same,post-emergent herbicidal activity index,"[25]; Table I, 4 WAT, 11.2 kg/h",4 (100% control)
same,post-emergent herbicidal activity index,[25]; [32],0 (0-24% control)
same,post-emergent herbicidal activity index,"[25]; Table II, 4 WAT, 1.12 kg/h",3 (75-99% control)
same,post-emergent herbicidal activity index,"[25]; Table II, 4 WAT, 5.6 kg/h",3 (75-99% control)
same,post-emergent herbicidal activity index,[26]; [31],0 (0-24% control)
same,post-emergent herbicidal activity index,"[26]; 4 WAT, 1.12 kg/h",4 (100% control)
same,post-emergent herbicidal activity index,"[26]; 4 WAT, 5.6 kg/h",4 (100% control)
same,post-emergent herbicidal activity index,[27]; 5.6 kg/h,3 (75-99% control)
same,post-emergent herbicidal activity index,[27]; 11.2 kg/h,4 (100% control)
same,post-emergent herbicidal activity index,"[28]; Table I, 4 WAT, 5.6 kg/h",3 (75-99% control)
same,post-emergent herbicidal activity index,"[28]; Table I, 4 WAT, 11.2 kg/h",4 (100% control)
same,post-emergent herbicidal activity index,[28]; [32],1 (25-49% control)
same,post-emergent herbicidal activity index,"[28]; Table II, 4 WAT, 1.12 kg/h",4 (100% control)
same,post-emergent herbicidal activity index,"[28]; Table II, 4 WAT, 5.6 kg/h",4 (100% control)
same,post-emergent herbicidal activity index,"[29]; Table I, 4 WAT, 5.6 kg/h",3 (75-99% control)
same,post-emergent herbicidal activity index,"[29]; Table I, 4 WAT, 11.2 kg/h",4 (100% control)
same,post-emergent herbicidal activity index,[29]; [32],0 (0-24% control)
same,post-emergent herbicidal activity index,"[29]; Table II, 4 WAT, 1.12 kg/h",3 (75-99% control)
same,post-emergent herbicidal activity index,"[29]; Table II, 4 WAT, 5.6 kg/h",3 (75-99% control)
same,post-emergent herbicidal activity index,[30]; [31],0 (0-24% control)
same,post-emergent herbicidal activity index,"[30]; 4 WAT, 1.12 kg/h",4 (100% control)
same,post-emergent herbicidal activity index,"[30]; 4 WAT, 5.6 kg/h",4 (100% control)

# Reference: US4442044A, “Process for preparing monoesters and diesters of N-alkyl substituted amino methyl phosphonic acid” (priority 1983, dated 1984)
